Laboratory results reported in EP3878462B1 (priority 2015, dated 2017).
Where two headings read alike, the source gives them in different places.

Legend:
[1] = Etoposide 200 mg/kg + 5-FU 400 mg/kg per os, treatment 50 mg/kg IV
Method: On Day 1, Etoposide (LANCE) 200 mg/kg and 5-fluorouracil (5-FU; EBEWE) 400 mg/kg were given orally via feeding needle in 500 pl of a 9% glucose solution. Animals were divided into 4 groups of 16 rats each. […] Group I: IV placebo (WFI); • 2. Group II: human recombinant DNase I (Pharmsynthez OJSC) at 1.5 mg/kg (3000 KU/kg) dose IV; • 3. Group III: human recombinant DNase I (Pharmsynthez OJSC) at 50 mg/kg (100000 KU/kg) dose IV; • 4. Group IV: cimetidine solution (Gedeon Richter) at 50 mg/kg dose IV.
36 hours later, all animals were euthanized and their stomachs were removed and analyzed for the presence of erosions and hemorrhages using an automated video analyzer system.

Thymocytes = test: Con A-induced lymphocyte blast transformation of thymocytes from paclitaxel-treated mice (3H thymidine incorporation); assay type: in vivo, (CBAxC57Bl6) F1 mice; details: thymocytes collected 24 hours after paclitaxel 20 mg/kg IV, with or without DNase gamma 2 mg/kg IP 1 hour later, scintillation counts
Method: 10 male 6-week-old (CBAxC57Bl6) F1 mice (obtained from Rappolovo animal house) were given a single 20 mg/kg dose of paclitaxel (Paclitaxel-Teva) IV. A group of 5 paclitaxel treated mice were injected IP 1 hour later with recombinant mouse DNase gamma (USCN Life Science Inc.) at 2 mg/kg dose IP. A group of 5 […] mice were injected IP at the same time with 1 ml of placebo (WFI) to serve as the control. All mice were killed 24 hours later by cervical dislocation. The thymuses from each group were collected and homogenized in a separator in RPMI 1640 media supplemented with 10% fetal calf serum. The suspension of thymocytes was filtered and sedimented in a centrifuge at 400xg for 2 minutes and then resuspended with the same media. Thymocytes were plated into 96 well plates (900,000 cells per well in 200 pl of RPMI 1640 supplemented with 10% fetal calf serum (FCS)) and incubated for 32 hours at 37°C, 100% humidity and 5% COz atmosphere. Each well was then supplemented with ^3H thymidine (UC/10pl/well) and Concanavalin A (ConA; 50pl; 1.25 pg/ml). After 24 hours of further incubation, thymocytes were harvested and dried. Labeled ^3H thymidine incorporation was measured using a Beckman scintillation counter.

[2] = surviving rats, Day 14; Doxorubicin 3.75 mg/kg plus DNase I 15 mg/kg/day IP or placebo
Method: 42 Wistar male rats (180-200 g) were used in this experiment (obtained from Stolbovaya nursery of Russian Academy of Medical Sciences). Animals were kept under standard conditions with free access to food and drinking water. Animals were randomized into 7 groups (6 animals in each group) as follows: • 1. Group I: control group (no Doxorubicin, no DNase); • 2. Group II: animals treated by daily intravenous (IV) injections of Doxorubicin (LENS) at 3.75 mg/kg/day dose for 5 days plus daily intraperitoneal (IP) injections of human recombinant DNase I (Pharmsynthez OJSC) at 15 mg/kg/day dose (30000 KU/kg/day); Doxorubicin and DNase I injections were administered at the same time; • 3. Group III: animals treated by daily IV injections of Doxorubicin (LENS) at 3.75 mg/kg/day dose for 5 days plus daily IP injections of placebo (water for injection [WFI]); • 4. Group IV: animals treated by daily IV injections of Doxorubicin (LENS) at 7.5 mg/kg/day dose for 5 days plus daily IP injections of human recombinant DNase I (Pharmsynthez OJSC) at 15 mg/kg/day dose (30000 KU/kg/day); Doxorubicin and DNase I injections were administered at the same time; • 5. Group V: animals treated by daily IV injections of Doxorubicin (LENS) at 7.5 mg/kg/day dose for 5 days plus daily IP injections of placebo (WFI); • 6. Group VI: animals treated by daily IV injections of Doxorubicin (LENS) at 10.0 mg/kg/day dose for 5 days plus daily IP injections of human recombinant DNase I (Pharmsynthez OJSC) at 15 mg/kg/day dose (30000 KU/kg/day); Doxorubicin and DNase I injections were administered at the same time; • 7. Group VII: animals treated by daily IV injections of Doxorubicin (LENS) at 10.0 mg/kg/day dose for 5 days plus daily IP injections of placebo (WFI).

[3] = for Body weight of surviving rats: Doxorubicin 3.75 mg/kg plus DNase I 15 mg/kg/day IP or placebo; for Number of dead/out of total in group: monitored 2 weeks
Source text: Group I: control group (no Doxorubicin, no DNase); • 2.
Animals were monitored during 2 weeks from the beginning of experiment for survival and weight.

L1210 leukemia cells = test: Survival of mice transplanted with L1210 leukemia cells; assay type: in vivo, DBA2 mice; details: single agent: AraC 1000 mg/kg IP Days 2, 5, 8, or DNase II 15 or 45 mg/kg/day IP; Figure 4
Method: Treatment with DNase and AraC was initiated on Day 1 of experiment. Cytosine arabinoside (AraC; Cytosar; Pfizer) was injected IP at a dose of 1000 mg/kg on Days 2, 5 and 8. The injected doses were considered adequate for the model and injection route based on prior experiments (13-14). DNase II (Wornington) was injected IP at doses of 15 mg/kg/day and 45 mg/kg/day on Days 1, 3, 5, 8, 10, 12, 15, 17, and 19.
Animals were randomized into 6 experimental groups of 6 mice per group as follows: • 1. Group I: negative control (no treatment); • 2. Group II: positive control (animals treated with AraC); • 3. Group III: animals treated with AraC and 15 mg/kg DNase; • 4. Group IV: animals treated with AraC and 45 mg/kg DNase; • 5. Group V: animals treated with 15 mg/kg DNase, no AraC; • 6. Group VI: animals treated with 45 mg/kg DNase, no AraC.

[4] = Doxorubicin 3.75 mg/kg/day IV for 5 days plus DNase I 15 mg/kg/day IP or placebo (WFI)
[5] = Doxorubicin 7.5 mg/kg/day IV for 5 days plus DNase I 15 mg/kg/day IP or placebo (WFI)
[6] = Doxorubicin 10.0 mg/kg/day IV for 5 days plus DNase I 15 mg/kg/day IP or placebo (WFI)

In the case of `CN/C(=N/CCSCc1nc[nH]c1C)NC#N` [Cimetidine, cimetidine], the “Median number of lesions” value [1] is reported as 2.5±1.1, the “Number of lesion free animals (percent)” value [1] is reported as 62.5% and the “Total number of lesions per group” value ([1]; 16 animals, 36 hours later) is reported as 40. The “Number of lesion free animals” value ([1]; of 16 animals) was 10.
With `CC(=O)O[C@H]1C(=O)[C@@]2(C)[C@H]([C@H](OC(=O)c3ccccc3)[C@]3(O)C[C@H](OC(=O)[C@H](O)[C@@H](NC(=O)c4ccccc4)c4ccccc4)C(C)=C1C3(C)C)[C@]1(OC(C)=O)CO[C@@H]1C[C@@H]2O` [Paclitaxel, paclitaxel] the “Con A-induced ^3HT incorporation” value (Thymocytes; ConA) was 1686±142 CPM and the “Basal ^3HT incorporation” value (Thymocytes) was 277±21 CPM.
Compound `COc1cccc2c1C(=O)c1c(O)c3c(c(O)c1C2=O)C[C@@](O)(C(=O)CO)C[C@@H]3O[C@H]1C[C@H](N)[C@H](O)[C@H](C)O1` [Doxorubicin] has a Basophils [2] of 0%, an Eosinophils [2] of 2.4±0.3% and a Glucose [2] of 6.1 ± 0.2 mmol/L. For the same compound, the Haemoglobin [2] was 9.5±0.7 G%, the Hematocrit [2] was 30.5±2.2% and the K [2] was 5.6 ± 0.3 mmol/L. It also gave a Lymphocytes [2] of 82.3±2.2%, a Monocyte [2] of 2.3±0.5% and a Na [2] of 144 ± 2 mmol/L. The Plasmatic cells [2] was 1.3±0.5%, the Platelets [2] was 340±25 10^9/L and the Protein [2] was 54.7 ± 7.3 g/L. It also gave an RBC sedimentation count [2] of 24.1±4.5 mm/h, a Segmented neutrophils [2] of 11.6±1.3% and a Total cholesterol [2] of 1.10 ± 0.29 mmol/L. For the same compound, the Total lipids [2] was 2.06 ± 0.27 g/L, the Urea [2] was 7.21 ± 0.3 mmol/L and the WBC [2] was 4.9±0.2 10^9/L. For the same compound, the “Body weight of surviving rats” value ([3]; Baseline (before doxorubicin)) was 164 ± 6 grams, the “Body weight of surviving rats” value ([3]; Day 4) was 143 ± 6 grams and the “Body weight of surviving rats” value ([3]; Day 7) was 151 ± 7 grams. The “Body weight of surviving rats” value ([3]; Day 14) was 156 ± 6 grams, the “Median survival of deceased rats” value [3, 4] was 12 ± 2.1 days and the “Number of dead/out of total in group” value [3, 4] was 3/6. The “Median survival of deceased rats” value [3, 5] was 8.2 ± 1.0 days, the “Number of dead/out of total in group” value [3, 5] was 5/6 and the “Median survival of deceased rats” value [3, 6] was 6.6 ± 0.9 days. The “Number of dead/out of total in group” value [3, 6] was 6/6.
With `Nc1ccn([C@@H]2O[C@H](CO)[C@@H](O)[C@@H]2O)c(=O)n1` [AraC, cytosine arabinoside] the survival rates (L1210 leukemia cells) was “better survival rates versus non-treated mice”.
